Measurements reported in patent US20130109581A1, “POSITIVELY CHARGED SPECIES AS BINDING REAGENTS IN THE SEPARATION OF PROTEIN AGGREGATES FROM MONOMERS” (priority 2009, published 2013).
Several values for one entry are separate records, joined by “and”; a condition that tells them apart may be missing. Equal entries are not always repeated.

Experiments:
Format in all cases: binding
[1] = molecular target: T1, oligomeric beta amyloid 1-42 (globulomer) (Homo sapiens, UniProt P05067); test: Misfolded Protein Assay: capture of globulomer spiked into CSF (Example 2)
T1 construct: beta amyloid (1-42) was monomerized with incubation in hexafluoroisopropanol
T1 sequence (P05067 672-713 limits assumed): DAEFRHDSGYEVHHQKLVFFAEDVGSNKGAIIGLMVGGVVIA
Description: To assess the ability of these reagents to capture protein aggregates, the previously described Misfolded Protein Assay or MPA (Lau et al., 2007, PNAS, 104: 11551) was used (FIG. 3). In this assay, the capture reagent of interest is attached to beads which are incubated with a sample of interest containing a mixture of normal monomeric and aggregated proteins to allow for capture and then washed to remove unbound material. After this enrichment step, an elution buffer is used to dissociate the captured material from the beads as well as to denature any aggregates. The eluted material is then applied to a sandwich ELISA that is specific for the protein of interest. Strong aggregate-binding reagents acting as effective capture reagents show a high signal from the sample containing a mixture of monomers and aggregates, but not from the control sample, which contains only physiologic levels of monomeric protein.
Beads displaying carboxylic acids were treated with EDC and BMPH to create maleimide-displaying beads, to which thiolated peptides (or other thiolated organic molecules) were added through a Michael addition reaction. Dynal M270 magnetized beads (30 mg/mL bead) displaying carboxylic acids were vortexed and placed into a 15 ml falcon tube. The tube was placed into a magnet, and the supernatant removed. The beads were washed 2 times with 0.1 M MES buffer, pH 5, and then the washing buffer was removed. The coupling solution (33 mM BMPH, 130 mM EDC in MES buffer) was added, and the tube was rocked for 30 minutes at room temperature. After washing in 1×MES, 1× Tris, pH 7.5, the beads were quenched with Tris buffer (50 mM Tris buffer, pH 7.5) for 15 minutes. The beads were then washed 2 times in phosphate buffer and added to 5 mM thiolated ligand in degassed phosphate. The beads were rotated for 21 hours, then washed in 0.1 M phosphate buffer, pH 7, 1×PBS, and stored.
To prepare the globulomer, beta amyloid (1-42) was monomerized with incubation in hexafluoroisopropanol. The hexafluoroisopropanol was removed by vacuum centrifugation. DMSO, PBS, and 2% SDS were then added to the sample. The sample was vortexed and sonicated and then incubated at 37° C. After 6 hours, the sample was diluted with water, vortexed, and incubated at 37° C. for an additional 19 hours. The sample was ultracentrifuged at 135000×g for 1 hour at 4° C., and the supernatant retained. The globulomers were spiked into CSF for the assay.
Aliquots of beads conjugated to various reagents were added to wells of a 96-well plate. Globulomer-spiked CSF in a Tris buffer was added to each well, and the plates were incubated for 1 hour at 37° C. with shaking. For the negative control, normal CSF was used, which is considered to contain only monomers of beta amyloid. The beads were washed with TBST wash buffer, and bound materials were eluted with a denaturing solution (typically 0.1-0.15 N NaOH). A reconditioning buffer was added to the eluate prior to beta amyloid detection via a beta amyloid (1-42) specific sandwich ELISA.
In order to determine the amount of ligand loading, amine quanitation was used. Aliquots of beads were placed in a magnet, and the supernatant removed. 80% phenol in ethanol, 0.2 mM KCN in pyridine/water, and 6% ninhydrin in ethanol was added to each tube. The aliquots were vortexed and heated for 7 minutes at 100° C. After cooling to room temperature, 60% ethanol was added. The tubes were placed in a magnet, and the absorbance of the supernatant at 570 nm was determined. The loading of the beads was determined according to Beer's law, using the extinction coefficient of 15000 M-1 cm-1.
Beads (3 ul or 15 ul) were added to samples containing 0.5 ng/mL globulomer spiked into CSF. […] For PSR1, this limit was ˜5 nmol ligand/mg bead for binding preferentially to globulomer. […]

Aβ42 Globulomer = molecular target: T2, Aβ42 Globulomer (Homo sapiens, UniProt P05067); test: Misfolded Protein Assay, LoD and capture in CSF: globulomer; settings: for LoD: spiked into CSF
T2 construct: beta amyloid (1-42) was monomerized with incubation in hexafluoroisopropanol
T2 sequence (P05067 672-713 limits assumed): as above
Description: (§1) The Ab42 aggregates were prepared as previously described: fibrils were prepared per Stine et al (JBC 2003, 278, p11612), globulomers were prepared per Barghorn et al (J Neurology 2005 95 p834), ADDLs were prepared per Lambert et al (PNAS 1998, 95 p6448), and ASPDs were prepared per Noguchi et al (JBC 2009 284 p32895). Normal CSF was pooled from clinically characterized non-demented patient CSF samples. AD CSF was pooled from clinically-characterized AD patient samples. Alzheimer's Disease Brain Homogenate (ADBH) was prepared by sonication of clinically diagnosed AD patient brain samples in 0.2M.sucrose (1:10 w/v).
(§2) For the capture assay (Misfolded Protein Assay), aliquots of the beads (30 ul) were added to wells of a 96 well plate, followed by 125 ul of sample in 80:20 CSF:TBSTT. The plate was sealed and incubated for 1 h at 37 C with shaking. The plate was washed with TBST and the residual buffer removed. A denaturing solution (0.1 N NaOH) was added to each well and the plate heated to 80 C. for 30 min with shaking. After cooling the plate to RT, a neutralizing buffer (0.12 M NaH2PO3-0.4% TW20,) was added and the plate shaken briefly at RT. The assay was analyzed using the triplex Mesoscale Discovery ELISA kit for Aβ. The Aβ in the samples eluted from the beads were detected per the manufacturer's protocol.
For the Limit of Detection (LoD) studies, serial dilutions of each aggregate were spiked into CSF and were assayed per the protocol described above. The LoD was defined as 2× over background levels.
This pattern minors the capture selectivity observed when these species are tested with 3 ul of PSR1 beads and 1 ng/mL of aggregate.

[2] = molecular target: T3, Aβ40 aggregates in AD CSF (Homo sapiens, UniProt P05067); test: Discrimination between AD and normal CSF; settings: FIG. 39
T3 construct: from tissue; host or cells: pooled cerebrospinal fluid (normal or AD)
T3 sequence (P05067 672-711 limits assumed): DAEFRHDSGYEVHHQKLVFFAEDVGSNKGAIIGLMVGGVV
Description: as §1, §2
For discriminating between AD and normal CSF, pooled normal CSF or pooled Alzheimer's Disease patient CSF, were assayed per the protocol described above.

Nab-Nab-Nab-Nbn-Nab-Nbn [PSR1]
minimum density required for oligomer capture ([1]; 0.5 ng/mL globulomer in CSF, assuming all amines protonated at pH 7.4): roughly 6000 nmol positive charges/m^2 | minimum density required for oligomer capture ([1]; 0.5 ng/mL globulomer in CSF, from 2-5 m^2 surface area per gram bead): approximately 1500 nmol ligand/m^2 | minimum density required for oligomer capture ([1]; 0.5 ng/mL globulomer spiked into CSF, 3 ul or 15 ul beads): ~5 nmol ligand/mg bead | capture of oligomers (relative light units from the Abeta ELISA) ([1]; globulomer-spiked CSF vs normal CSF, reagent on Dynal M270 beads): capable of enriching oligomers | sensitivity and specificity for globulomers ([1]; native vs denatured globulomer in CSF, directly conjugated beads vs streptavidin beads with biotin-PSR1): higher sensitivity and specificity for globulomers | capture of Globulomer (Aβ42 Globulomer; 3 ul of beads and 1 ng/mL of aggregate): 1267 | LoD (Aβ42 Globulomer): ~140 amol | LoD (Aβ42 Globulomer; LoD = 2× over background): ~75 pg/mL and 75 pg/mL | Aβ40 signal in pooled AD CSF relative to normal pool [2]: higher Aβ40 signal in positive pooled AD CSF relative to unmatched normal pool
